Assay results as given in PubChem BioAssay AID330 (DTP/NCI, 2004).
Several values for one entry are separate records, joined by “and”; a condition that tells them apart may be missing. Identical values can stand only once. Toxic doses and inconclusive results are not listed.

System: P388 leukemia ip, CD2F1 mice, survival T/C
Test: NCI In Vivo Anticancer Drug Screen. Data for tumor model P388 Leukemia (intraperitoneal) in CD2F1 (CDF1) mice
Conditions: endpoint: median survival time, higher = longer survival
Method in brief: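 Mice carrying the transplanted tumor received test compound or vehicle. Survival was recorded in each group, and the value is the treated-group measurement divided by that of the vehicle-treated control group.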

[1] = dose: 100.0 mg/kg/injection, schedule: Q04DX002 (ip), vehicle: saline with Tween-80
[2] = dose: 50.0 mg/kg/injection, schedule: Q01DX005 (ip), vehicle: saline with Tween-80
[3] = dose: 100.0 mg/kg/injection, schedule: Q01DX005 (ip), vehicle: saline with Tween-80
[4] = dose: 200.0 mg/kg/injection, schedule: Q01DX005 (ip), vehicle: saline with Tween-80
[5] = dose: 50.0 mg/kg/injection, schedule: Q01DX009 (ip), vehicle: saline with Tween-80
[6] = dose: 25.0 mg/kg/injection, schedule: Q01DX009 (ip), vehicle: saline
[7] = dose: 50.0 mg/kg/injection, schedule: Q01DX009 (ip), vehicle: saline
[8] = dose: 50.0 mg/kg/injection, schedule: Q01DX009 (ip), vehicle: Klucel (hydroxypropylcellulose) (HPC)
[9] = dose: 100.0 mg/kg/injection, schedule: Q01DX009 (ip), vehicle: Klucel (hydroxypropylcellulose) (HPC)
[10] = dose: 200.0 mg/kg/injection, schedule: Q01DX009 (ip), vehicle: Klucel (hydroxypropylcellulose) (HPC)
[11] = dose: 100.0 mg/kg/injection, schedule: Q01DX005 (ip), vehicle: Klucel (hydroxypropylcellulose) (HPC)
[12] = dose: 200.0 mg/kg/injection, schedule: Q01DX005 (ip), vehicle: Klucel (hydroxypropylcellulose) (HPC)
[13] = dose: 12.5 mg/kg/injection, schedule: Q01DX005 (ip), vehicle: saline with Tween-80
[14] = dose: 25.0 mg/kg/injection, schedule: Q01DX005 (ip), vehicle: saline with Tween-80
[15] = dose: 60.0 mg/kg/injection, schedule: Q01DX005 (ip), vehicle: saline with Tween-80
[16] = dose: 120.0 mg/kg/injection, schedule: Q01DX005 (ip), vehicle: saline with Tween-80
[17] = dose: 240.0 mg/kg/injection, schedule: Q01DX005 (ip), vehicle: saline with Tween-80
[18] = dose: 100.0 mg/kg/injection, schedule: Q01DX009 (ip), vehicle: saline
[19] = dose: 200.0 mg/kg/injection, schedule: Q01DX009 (ip), vehicle: saline

CNC(=O)OCn1cnc(Cl)c1Cl
T/C (dose: 50.0 mg/kg/injection, schedule: Q01DX005 (ip), vehicle: saline): 93 % of control | T/C (dose: 100.0 mg/kg/injection, schedule: Q01DX005 (ip), vehicle: saline): 101 % of control | T/C (dose: 200.0 mg/kg/injection, schedule: Q01DX005 (ip), vehicle: saline): 102 % of control

CNc1ccc(N=Nc2ccncc2C)cc1C
T/C (dose: 6.25 mg/kg/injection, schedule: Q01DX009 (ip), vehicle: DMSO): 89 % of control | T/C (dose: 12.5 mg/kg/injection, schedule: Q01DX009 (ip), vehicle: DMSO): 88 % of control | T/C (dose: 25.0 mg/kg/injection, schedule: Q01DX009 (ip), vehicle: DMSO): 87 % of control

C=C1C(=O)O[C@@H]2C3=C(C)C(=O)C=C[C@]3(C)CC[C@@H]12
T/C [1]: 109 % of control

O=[N+]([O-])c1ccc(N2CCOCC2)c2c1no[n+]2[O-]
T/C (dose: 8.0 mg/kg/injection, schedule: Q04DX003 (ip), vehicle: suspension in saline): 98 % of control | T/C (dose: 16.0 mg/kg/injection, schedule: Q04DX003 (ip), vehicle: suspension in saline): 105 % of control | T/C (dose: 32.0 mg/kg/injection, schedule: Q04DX003 (ip), vehicle: suspension in saline): 99 % of control | T/C (dose: 64.0 mg/kg/injection, schedule: Q04DX003 (ip), vehicle: suspension in saline): 123 % of control

O=C1CN(CCN2CCOCC2)CC(=O)N2Cc3ccccc3CN12
T/C [2]: 108 % of control | T/C [3]: 98 % of control | T/C [4]: 101 % of control

Cc1cc(C)n2ncc(Br)c2n1
T/C [2]: 100 % of control | T/C [3]: 100 % of control | T/C [4]: 94 % of control

CCCCCC(CN(C)C)C(=O)/C=C/c1ccc2c(c1)OCO2 (centres undefined)
T/C [5]: 123 % of control | T/C (dose: 100.0 mg/kg/injection, schedule: Q01DX009 (ip), vehicle: saline with Tween-80): 109 % of control

C1=CC2CCC1C1CSCC21 (centres undefined)
T/C (dose: 12.5 mg/kg/injection, schedule: Q01DX009 (ip), vehicle: saline): 98 % of control | T/C [6]: 100 % of control | T/C [7]: 87 % of control and 92 % of control

COc1cccc(C2NC(=S)NC(=O)C2C#N)c1 (centres undefined)
T/C [8]: 98 % of control | T/C [9]: 98 % of control | T/C [10]: 94 % of control

CCN(CC)CCCC(C)Nc1c2ccc(C)cc2nc2ccc(OC)cc12 (centres undefined)
T/C (dose: 12.5 mg/kg/injection, schedule: Q01DX009 (ip), vehicle: saline with Tween-80): 103 % of control | T/C [5]: 112 % of control

CN(C)C(=O)n1cc(Cl)c(=O)c2c3ncn(C)c3ccc21
T/C (dose: 60.0 mg/kg/injection, schedule: Q01DX005 (ip), vehicle: Klucel (hydroxypropylcellulose) (HPC)): 108 % of control | T/C [11]: 101 % of control | T/C [12]: 100 % of control

CS(=O)(=O)CS(=O)(=O)OCCBr
T/C [13]: 98 % of control | T/C [14]: 123 % of control | T/C [2]: 159 % of control | T/C [3]: 226 % of control

CC(C)(Oc1ccc(Cl)cc1)C(=O)OCCCC(=O)NC1CC(C)(C)N(O)C(C)(C)C1
T/C (dose: 200.0 mg/kg/injection, schedule: Q01DX001 (ip), vehicle: saline): 105 % of control | T/C (dose: 400.0 mg/kg/injection, schedule: Q01DX001 (ip), vehicle: saline): 115 % of control

NC(=O)C1CCCN1C(=O)C1CCCN(CCCCCCN2CCCC(C(=O)N3CCCC3C(N)=O)C2)C1 (centres undefined)
T/C (dose: 60.0 mg/kg/injection, schedule: Q01DX005 (ip), vehicle: saline): 105 % of control | T/C (dose: 120.0 mg/kg/injection, schedule: Q01DX005 (ip), vehicle: saline): 98 % of control

CC(C)(O)c1cccc2c(C(C)(C)O)cccc12
T/C [8]: 88 % of control | T/C [9]: 97 % of control | T/C [10]: 93 % of control and 94 % of control | T/C (dose: 400.0 mg/kg/injection, schedule: Q01DX009 (ip), vehicle: Klucel (hydroxypropylcellulose) (HPC)): 91 % of control

COc1cccc(C2C(C#N)C(=O)NC(=O)C2C#N)c1 (centres undefined)
T/C [8]: 102 % of control | T/C [9]: 100 % of control | T/C [10]: 99 % of control

COC1C(C)OC(OC2CC(C)(O)Cc3cc4c(c(O)c32)C(=O)c2c(O)cc3c(c2C4=O)OC2OC3(C)C(O)C(N(C)C=O)C2O)C(OC)C1(C)OC (centres undefined)
T/C (dose: 3.12 mg/kg/injection, schedule: Q04DX003 (ip), vehicle: other): 100 % of control | T/C (dose: 6.25 mg/kg/injection, schedule: Q04DX003 (ip), vehicle: other): 97 % of control | T/C (dose: 12.5 mg/kg/injection, schedule: Q04DX003 (ip), vehicle: other): 94 % of control | T/C (dose: 25.0 mg/kg/injection, schedule: Q04DX003 (ip), vehicle: other): 91 % of control | T/C (dose: 50.0 mg/kg/injection, schedule: Q04DX003 (ip), vehicle: other): 95 % of control

NNS(=O)(=O)c1ccc(Cl)cc1
T/C (dose: 25.0 mg/kg/injection, schedule: Q01DX009 (ip), vehicle: other): 117 % of control | T/C (dose: 50.0 mg/kg/injection, schedule: Q01DX009 (ip), vehicle: other): 113 % of control | T/C (dose: 100.0 mg/kg/injection, schedule: Q01DX009 (ip), vehicle: other): 120 % of control | T/C (dose: 200.0 mg/kg/injection, schedule: Q01DX009 (ip), vehicle: other): 120 % of control

CC1(C)CCC2(C)N(c3ccccc3)C(=O)ON12 (centres undefined)
T/C [2]: 102 % of control | T/C [3]: 100 % of control | T/C [4]: 99 % of control

CCOc1ccc(N2C(N)=NC(N)=NC2(C)C)cc1
T/C [13]: 99 % of control | T/C [14]: 101 % of control | T/C [2]: 101 % of control and 108 % of control

COc1ccc(C(CC(C)=O)c2cc3c(cc2OC(C)=O)OCO3)cc1 (centres undefined)
T/C [15]: 97 % of control | T/C [16]: 103 % of control | T/C [17]: 99 % of control

Cc1ccc(-n2nnc(-c3ccc(Cl)c(Cl)c3)n2)cc1
T/C [2]: 103 % of control | T/C [3]: 103 % of control | T/C [4]: 100 % of control

CC(C)(C)[P+](C)(C)c1ccccc1
T/C (dose: 12.5 mg/kg/injection, schedule: Q04DX003 (ip), vehicle: Klucel (hydroxypropylcellulose) (HPC)): 105 % of control | T/C (dose: 25.0 mg/kg/injection, schedule: Q04DX003 (ip), vehicle: Klucel (hydroxypropylcellulose) (HPC)): 100 % of control

O=C1CC2(CCCC2)C(=O)N1c1ccccc1O
T/C [6]: 103 % of control | T/C [8]: 118 % of control and 94 % of control | T/C [7]: 96 % of control | T/C [9]: 100 % of control | T/C [18]: 96 % of control | T/C [10]: 100 % of control | T/C [19]: 96 % of control

COC(=O)/C=C1/Nc2ccccc2SC1C(=O)OC (centres undefined)
T/C [2]: 104 % of control | T/C [3]: 99 % of control | T/C [4]: 100 % of control

CC1=C(C)C(C)(C)OC1=O
T/C (dose: 100.0 mg/kg/injection, schedule: Q01DX001 (ip), vehicle: saline with Tween-80): 100 % of control | T/C (dose: 200.0 mg/kg/injection, schedule: Q01DX001 (ip), vehicle: saline with Tween-80): 100 % of control | T/C (dose: 400.0 mg/kg/injection, schedule: Q01DX001 (ip), vehicle: saline with Tween-80): 104 % of control

N/C(=N\N=C1CCCCC1)N[N+](=O)[O-]
T/C (dose: 50.0 mg/kg/injection, schedule: Q01DX005 (ip), vehicle: Klucel (hydroxypropylcellulose) (HPC)): 105 % of control | T/C [11]: 102 % of control | T/C [12]: 102 % of control

OC1C(c2ccccc2)=C(c2ccccc2)C2(c3ccccc3)CC12c1ccccc1 (centres undefined)
T/C (dose: 12.5 mg/kg/injection, schedule: Q04DX003 (ip), vehicle: saline with Tween-80): 93 % of control | T/C (dose: 25.0 mg/kg/injection, schedule: Q04DX003 (ip), vehicle: saline with Tween-80): 117 % of control | T/C (dose: 50.0 mg/kg/injection, schedule: Q04DX003 (ip), vehicle: saline with Tween-80): 88 % of control

Cc1c(-c2cccc(Cl)n2)nc2ccccc2c1C(=O)O
T/C [1]: 99 % of control | T/C (dose: 200.0 mg/kg/injection, schedule: Q04DX002 (ip), vehicle: saline with Tween-80): 99 % of control | T/C (dose: 400.0 mg/kg/injection, schedule: Q04DX002 (ip), vehicle: saline with Tween-80): 99 % of control

OCC[N+]12CN3CN(CN(C3)C1)C2
T/C [6]: 108 % of control | T/C [7]: 110 % of control | T/C [18]: 111 % of control | T/C (dose: 178.0 mg/kg/injection, schedule: Q01DX009 (ip), vehicle: saline): 118 % of control | T/C [19]: 118 % of control | T/C (dose: 266.0 mg/kg/injection, schedule: Q01DX009 (ip), vehicle: saline): 118 % of control

CCN(CC)C(C)(C)C(=O)/C=C/c1ccc(OC)cc1
T/C [15]: 115 % of control | T/C [16]: 107 % of control | T/C [17]: 100 % of control
